Reference: PubChem BioAssay AID2060884 (Molecular Pharmacology Branch, DTP, NCI, 2025)
Where “and” joins values, the source holds several entries; their conditions need not be identical. Equal entries are not always repeated.

Test system: NCI-H929 complex spheroids, viability % test/control
Assay: Anticancer human tumor NCI-H929 cell line growth inhibition [RAS];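 note: compound exposure lasted seven days before viability was read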;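 for viability, T/C: 100% = DMSO vehicle control viability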
Conditions: for viability, T/C: stronger effect = lower value; active = viability on the fitted dose curve at most 10% of control; inactive = the rest
In short: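 Agents were tested in combination matrices in half-log decrements from a top concentration at or near clinical Cmax (10 microM if undetermined). Targets were multi-cell spheroids of tumour lines plus HUVEC and MSC stromal cells.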

[1] = curve of first compound, second compound 0.00316 µM
[2] = curve of first compound, second compound 0.01 µM
[3] = curve of first compound, second compound 0.0316 µM
[4] = curve of first compound, second compound 0.1 µM
[5] = curve of first compound, second compound 0.316 µM
[6] = curve of first compound, second compound 1 µM
[7] = second compound 0.00316 µM, first compound 0.0316 µM
[8] = second compound 0.00316 µM, first compound 0.1 µM
[9] = second compound 0.00316 µM, first compound 0.316 µM
[10] = second compound 0.00316 µM, first compound 1 µM
[11] = second compound 0.00316 µM, first compound 3.16 µM
[12] = second compound 0.00316 µM, first compound 10 µM
[13] = second compound 0.01 µM, first compound 0.0316 µM
[14] = second compound 0.01 µM, first compound 0.1 µM
[15] = second compound 0.01 µM, first compound 0.316 µM
[16] = second compound 0.01 µM, first compound 1 µM
[17] = second compound 0.01 µM, first compound 3.16 µM
[18] = second compound 0.01 µM, first compound 10 µM
[19] = second compound 0.0316 µM, first compound 0.0316 µM
[20] = second compound 0.0316 µM, first compound 0.1 µM
[21] = second compound 0.0316 µM, first compound 0.316 µM
[22] = second compound 0.0316 µM, first compound 1 µM
[23] = second compound 0.0316 µM, first compound 3.16 µM
[24] = second compound 0.0316 µM, first compound 10 µM
[25] = second compound 0.1 µM, first compound 0.0316 µM
[26] = second compound 0.1 µM, first compound 0.1 µM
[27] = second compound 0.1 µM, first compound 0.316 µM
[28] = second compound 0.1 µM, first compound 1 µM
[29] = second compound 0.1 µM, first compound 3.16 µM
[30] = second compound 0.1 µM, first compound 10 µM
[31] = second compound 0.316 µM, first compound 0.0316 µM
[32] = second compound 0.316 µM, first compound 0.1 µM
[33] = second compound 0.316 µM, first compound 0.316 µM
[34] = second compound 0.316 µM, first compound 1 µM
[35] = second compound 0.316 µM, first compound 3.16 µM
[36] = second compound 0.316 µM, first compound 10 µM
[37] = second compound 1 µM, first compound 0.0316 µM
[38] = second compound 1 µM, first compound 0.1 µM
[39] = second compound 1 µM, first compound 0.316 µM
[40] = second compound 1 µM, first compound 1 µM
[41] = second compound 1 µM, first compound 3.16 µM
[42] = second compound 1 µM, first compound 10 µM

C[C@@H](NC(=O)c1ncnc(N)c1Cl)c1ncc(C(=O)Nc2cc(C(F)(F)F)c(Cl)cn2)s1 + C=CC(=O)N1CCN(c2nc(OCC3CCCN3C)nc3c(F)c(-c4nc(N)cc(C)c4C(F)(F)F)c(Cl)cc23)C(C)C1
> 10 µM: IC50 [1] | IC50 [2] | IC50 [3] | IC50 [4] | IC50 [5] | IC50 [6]
inactive: viability, T/C [7] 106% | viability, T/C [8] 95.9% | viability, T/C [9] 101% | viability, T/C [10] 97.9% | viability, T/C [11] 101% | viability, T/C [12] 115% | viability, T/C [13] 91.8% | viability, T/C [14] 101% | viability, T/C [15] 92.3% | viability, T/C [16] 83.8% | viability, T/C [17] 91.2% | viability, T/C [18] 116% | viability, T/C [19] 95% | viability, T/C [20] 94.1% | viability, T/C [21] 93% | viability, T/C [22] 87.8% | viability, T/C [23] 100% | viability, T/C [24] 115% | viability, T/C [25] 85.9% | viability, T/C [26] 95.2% | viability, T/C [27] 104% | viability, T/C [28] 97.7% | viability, T/C [29] 103% | viability, T/C [30] 114% | viability, T/C [31] 99.6% | viability, T/C [32] 102% | viability, T/C [33] 102% | viability, T/C [34] 95% | viability, T/C [35] 97.3% | viability, T/C [36] 117% | viability, T/C [37] 110% | viability, T/C [38] 101% | viability, T/C [39] 103% | viability, T/C [40] 108% | viability, T/C [41] 103% | viability, T/C [42] 111%

CCc1c2c(nc3ccc(O)cc13)-c1cc3c(c(=O)n1C2)COC(=O)[C@]3(O)CC
active: viability, T/C (compound 0.00949 µM) 1.38% [middle of 4 runs] | viability, T/C (compound 0.03 µM) 1.43% [middle of 4 runs] | viability, T/C (compound 0.0949 µM) 1.87% [middle of 4 runs] | viability, T/C (compound 0.3 µM) 1.15% [middle of 4 runs]
1.97 nM [middle of 4 runs]: IC50 (curve of compound)
inactive: viability, T/C (compound 0.000949 µM) 110% and 80.3% and 104% (2×)
15.8% [middle of 4 runs]: viability, T/C (compound 0.003 µM)

CC(=O)OC12COC1CC(O)C1(C)C(=O)C(O)C3=C(C)C(OC(=O)C(O)C(NC(=O)OC(C)(C)C)c4ccccc4)CC(O)(C(OC(=O)c4ccccc4)C21)C3(C)C (stereo not drawn) + CCn1c(-c2cc(N3CCN(C)CC3)cnc2C(C)OC)c2c3cc(ccc31)-c1csc(n1)CC(NC(=O)C1CC1C)C(=O)N1CCCC(N1)C(=O)OCC(C)(C)C2
active: viability, T/C (second compound 0.000949 µM, first compound 0.0316 µM) 0.9% | viability, T/C (second compound 0.000949 µM, first compound 0.1 µM) 0.92% | viability, T/C (second compound 0.000949 µM, first compound 0.316 µM) 1.34% | viability, T/C (second compound 0.000949 µM, first compound 1 µM) 1.14% | viability, T/C (second compound 0.000949 µM, first compound 3.16 µM) 1.74% | viability, T/C (second compound 0.000949 µM, first compound 10 µM) 1.22% | viability, T/C (second compound 0.003 µM, first compound 0.0316 µM) 1.12% | viability, T/C (second compound 0.003 µM, first compound 0.1 µM) 1.88% | viability, T/C (second compound 0.003 µM, first compound 0.316 µM) 1.04% | viability, T/C (second compound 0.003 µM, first compound 1 µM) 0.64% | viability, T/C (second compound 0.003 µM, first compound 3.16 µM) 1.46% | viability, T/C (second compound 0.003 µM, first compound 10 µM) 0.97% | viability, T/C (second compound 0.00949 µM, first compound 0.0316 µM) 1.36% | viability, T/C (second compound 0.00949 µM, first compound 0.1 µM) 1.42% | viability, T/C (second compound 0.00949 µM, first compound 0.316 µM) 1.07% | viability, T/C (second compound 0.00949 µM, first compound 1 µM) 1.07% | viability, T/C (second compound 0.00949 µM, first compound 3.16 µM) 0.91% | viability, T/C (second compound 0.00949 µM, first compound 10 µM) 1.16% | viability, T/C (second compound 0.03 µM, first compound 0.0316 µM) 1.81% | viability, T/C (second compound 0.03 µM, first compound 0.1 µM) 0.83% | viability, T/C (second compound 0.03 µM, first compound 0.316 µM) 0.75% | viability, T/C (second compound 0.03 µM, first compound 1 µM) 1.71% | viability, T/C (second compound 0.03 µM, first compound 3.16 µM) 0.99% | viability, T/C (second compound 0.03 µM, first compound 10 µM) 1.17% | viability, T/C (second compound 0.0949 µM, first compound 0.0316 µM) 1.09% | viability, T/C (second compound 0.0949 µM, first compound 0.1 µM) 0.75% | viability, T/C (second compound 0.0949 µM, first compound 0.316 µM) 0.6% | viability, T/C (second compound 0.0949 µM, first compound 1 µM) 0.56% | viability, T/C (second compound 0.0949 µM, first compound 3.16 µM) 1.05% | viability, T/C (second compound 0.0949 µM, first compound 10 µM) 0.51% | viability, T/C (second compound 0.3 µM, first compound 0.0316 µM) 0.99% | viability, T/C (second compound 0.3 µM, first compound 0.1 µM) 0.51% | viability, T/C (second compound 0.3 µM, first compound 0.316 µM) 0.87% | viability, T/C (second compound 0.3 µM, first compound 1 µM) 0.72% | viability, T/C (second compound 0.3 µM, first compound 3.16 µM) 0.64% | viability, T/C (second compound 0.3 µM, first compound 10 µM) 0.46%
< 0.0316 µM: IC50 (curve of first compound, second compound 0.000949 µM) | IC50 (curve of first compound, second compound 0.003 µM) | IC50 (curve of first compound, second compound 0.00949 µM) | IC50 (curve of first compound, second compound 0.03 µM) | IC50 (curve of first compound, second compound 0.0949 µM) | IC50 (curve of first compound, second compound 0.3 µM)

CC(Nc1ccc2c(c1)OCCn1cc(N3C(=O)OCC3C(F)F)nc1-2)C(N)=O (stereo not drawn) + C=CC(=O)N1CCN(c2nc(OCC3CCCN3C)nc3c(F)c(-c4nc(N)cc(C)c4C(F)(F)F)c(Cl)cc23)C(C)C1
> 10 µM: IC50 [1] | IC50 [2] | IC50 [3] | IC50 [4] | IC50 [5]
8.11 µM: IC50 [6]
inactive: viability, T/C [7] 99% | viability, T/C [8] 103% | viability, T/C [9] 112% | viability, T/C [10] 107% | viability, T/C [11] 110% | viability, T/C [12] 61.1% | viability, T/C [13] 94.8% | viability, T/C [14] 103% | viability, T/C [15] 107% | viability, T/C [16] 112% | viability, T/C [17] 102% | viability, T/C [18] 64.3% | viability, T/C [19] 98% | viability, T/C [20] 106% | viability, T/C [21] 111% | viability, T/C [22] 114% | viability, T/C [23] 112% | viability, T/C [24] 64.6% | viability, T/C [25] 97.8% | viability, T/C [26] 104% | viability, T/C [27] 113% | viability, T/C [28] 113% | viability, T/C [29] 113% | viability, T/C [30] 66.1% | viability, T/C [31] 102% | viability, T/C [32] 107% | viability, T/C [33] 112% | viability, T/C [34] 112% | viability, T/C [35] 112% | viability, T/C [36] 77.5% | viability, T/C [37] 103% | viability, T/C [38] 110% | viability, T/C [39] 114% | viability, T/C [40] 115% | viability, T/C [41] 110% | viability, T/C [42] 36.7%
